Where a SMILES comes first, the peptide text is derived from it. The star is where a group is joined. Cbz = O=C(OCc1ccccc1)*
Experiments:
endogenous β-catenin = experiment: Phosphorylation of endogenous β-catenin in proteasome-inhibited HeLa cells with kinase inhibitors; type: cell-based; conditions: H89 5 μM
Method: FIG. 5d: Effects of specific kinase inhibitors on the phosphorylation of endogenous β-catenin at S41,45 and S33 in HeLa cells. CKI-7 was used at 100 μM, H89 at 5 μM and LiCl at 40 mM. β-catenin was detected with anti-β-catenin antibody, or anti-phospho-p-catenin antibodies.
(§1) 293T cells were transiently transfected using the calcium phosphate procedure. The following expression vectors were used: Myc- or Flag-tagged β-catenin (0.5 μg) (a human β-catenin clone obtained from R. Grosschedl), Flag- or Myc-tagged axin (2 μg) (mouse cDNA provided by F. Costantini), HA-GSK3β or Flag-GSK3β (3.5 μg) (a rabbit clone obtained from J R Woodgett) [Woodgett, J. R. (1990) EMBO J 9: 2431-2438]. β-catenin mutants include DP, (S33, S37, T40, S45, S47 substituted to alanine) single point mutants (S29F, S33Y, S37A, T41A, S45F) and 45PKA (T41S, T42R, A43R). Additional vectors: Flag-WD, a dominant negative β-TrCP fragment (ΔF-box) [Yaron, A. et al. (1998) Nature 396: 590-594]; Flag-Dvl-1 (a mouse cDNA clone obtained from S-I Yanagawa) [Lee, J. S. et al. (1999) J Biol Chem 274: 21464-21470]; WT and dominant negative Xenopus CKIε (XCKIε-D128N) (provided by T. Shcwarz-Romond) [McKay, R. M. et al. (2001) Dev Biol 235: 378-387]. 24-48 hr after transfection, cells were harvested and processed for the various experiments. MG-132 (Sigma) was used at 20 μM for 5 hr; LiCl (40 mM) was added for 6 hr, and CKI-7 (100 μM) for 16 hr prior to harvesting. β-catenin, axin or GSK-30 in cell lysates were detected using anti-Myc (Ab-1, Oncogenes Research Products, 2 μg/ml), anti-Flag (M2, Sigma, 1 μg/ml) and anti-HA (12CA5 ascites fluid; 1:5000) antibodies, respectively. GFP expression was monitored with anti-GFP antibody (JL-8, Clontech, 1 μg/ml). In some experiments (FIG. 4) GSK-3β was detected using anti-GSK-3β monoclonal antibodies (clone 7, Transduction Laboratories, 0.1 μg/ml). Endogenous and exogenous β-catenin (FIGS. 5d and 6a) were detected with anti-β-catenin antibodies (clone 14, Transduction Laboratories) (0.25 μg/ml).
Western blot and mass spectrometry (MS). Three different commercial anti-β-catenin phospho-peptide antibodies were used: i) Anti-phospho-Thr41/Ser 45 (Cell Signaling Technology), a polyclonal antibody specific for both pT41 and pS45 (otp41,45). ii) Anti-phospho-Ser33/37/Thr41 (Cell Signaling Technology), a polyclonal antibody recognizing pS33 (αp33). […] Antibody specificities were determined by phosphopeptide inhibition studies. […]
In another set of experiments the in vivo role of CKI in S45 phosphorylation was analyzed, using two dominant negative CKIε constructs (dnXCKIε K85R and D128N) [McKay et al. (2001) id ibid.] and a specific CKI inhibitor (CKI-7) [Chijiwa, T. et al. (1989) J Biol Chem 264: 4924-4927]. […]

β-catenin [1] = type: cell-based, human; conditions: 293 cells; CKI-7 100 μM for 16 hr; H89 data not shown
Method: as §1
Western blot and mass spectrometry (MS). Three different commercial anti-β-catenin phospho-peptide antibodies were used: i) Anti-phospho-Thr41/Ser 45 (Cell Signaling Technology), a polyclonal antibody specific for both pT41 and pS45 (otp41,45). ii) Anti-phospho-Ser33/37/Thr41 (Cell Signaling Technology), a polyclonal antibody recognizing pS33 (αp33). These two polyclonal antibodies were used at a 1:1000 dilution, according to the manufacturer's instructions. iii) anti-phospho-Ser 33/37 (BC-22, Sigma), a monoclonal antibody specific for pS37 (used as ascites fluid at a 1:3000 dilution; αp37). Antibody specificities were determined by phosphopeptide inhibition studies. D^32S(PO4)GIHSGATTTAPS^45 abolished the αp33, but not the αp37 signal; D^32SGIHS(PO4)GATTTAPS^45 blocked the αp37 but not the αp33 signal. […] Proteins for MS analysis were immunopurified by M2 Flag-affinity beads (Sigma), separated by SDS-PAGE, Coomassie stained and the β-catenin bands were in-gel digested with endoproteinase Asp-N. The resulting peptides were desalted on small columns, eluted with 20% MeOH, 5% HCOOH, and analyzed by nanoelectrospray mass spectrometry [Yaron et al. (1998) id ibid.], using a quadrupole time-of-flight mass spectrometer (PE-Sciex, Canada).
GSK-3β is traditionally known to target the phosphorylation of +4P-primed substrates [Frame, S. et al. (2001) Mol Cell 7: 1321-1327], a specificity supported by recent structural studies of the enzyme [Dajani, R. et al (2001) Cell 105: 721-732]. The fact that the S45 phosphorylation site is not preceded by a +4P priming site led to the proposition that the molecular complex of axin and GSK-3β is capable of bypassing the priming requirement of the uncomplexed enzyme [Cohen and Frame (2001) id ibid.]. To assess the contribution of GSK-30 in axin-mediated S45 phosphorylation, two types of experiments were carried out. In the first set, 293 cells were incubated prior to harvesting with LiCl, a GSK-3β inhibitor capable of mimicking a Wnt effect [Klein, P. S. and D. A. Melton (1996) Proc Natl Acad Sci USA 93: 8455-8459; Stambolic, V. et al. (1996) Curr Biol 6: 1664-1668].

β-catenin [2] = experiment: β-catenin degradation in the 293 axin/GSK-3β expression system (Western blot); type: cell-based, human; conditions: 293 cells, axin and GSK-3β overexpression, Myc-β-catenin; MG-132 20 μM for 5 hr
Method: as §1, with “T42R, A43R). […] MG-132 (Sigma)” for “T42R, A43R). Additional vectors: Flag-WD, a dominant negative β-TrCP fragment (ΔF-box) [Yaron, A. et al. (1998) Nature 396: 590-594]; Flag-Dvl-1 (a mouse cDNA clone obtained from S-I Yanagawa) [Lee, J. S. et al. (1999) J Biol Chem 274: 21464-21470]; WT and dominant negative Xenopus CKIε (XCKIε-D128N) (provided by T. Shcwarz-Romond) [McKay, R. M. et al. (2001) Dev Biol 235: 378-387]. 24-48 hr after transfection, cells were harvested and processed for the various experiments. MG-132 (Sigma)”, “(0.25 μg/ml). […]” for “(0.25 μg/ml).”

phosphatase PP1 = conditions: selective inhibitor of phosphatase PP2A; cited from earlier work
β-catenin [3] = experiment: Okadaic acid treatment of HeLa, SW480 and SNU449 cells, Western blot with anti-phospho β-catenin antibodies; type: cell-based
Method: FIG. 7a: HeLa cells were incubated with MG132 with or without okadaic acid (1 μM for 3 hr). Cell lysates were analyzed by Western blotting with αp45 and αp33.
FIG. 7b: SNU449 cells [Satoh et al. (2000) id ibid.] were treated with okadaic acid (1 μM for 1 or 3 hr), and their lysates tested for S45 phosphorylation by Western blotting,
FIG. 7c: Okadaic Acid induces β-Catenin phosphorylation and degradation in the APC mutated cell line SW480.
Okadaic acid is a selective inhibitor of phosphatase PP2A, while it inhibits to a lower extent (10-50 fold less) phosphatase PP1. Proteasome-inhibited HeLa and SW480 cells (treated with 20 μM MG132) or Ser 37-mutated SNU 449 […] cells [Satoh et al. (2000) id ibid.] were treated with okadaic acid (1 μM) for 1 or 3 hr, harvested and their lysate analyzed by Western blot with anti-phospho β-catenin antibodies: anti-pSer45 and anti-pSer33 (for HeLa and RKO cells only). […] Yet, since S45 phosphorylation precedes the S33 phosphorylation, the okadaic effect may be reserved to S45. This is an example of a compound that can upregulate S45 phosphorylation, while Wnt3A downregulates the same phosphorylation event (FIG. 6a).

β-catenin [4] = experiment: Wnt3A conditioned medium stimulation of L, SNU449, HeLa and Jurkat cells, β-catenin level and phosphorylation by Western blot; type: cell-based
Method: FIG. 6a: Wnt3A inhibits S45 phosphorylation. Mouse L cells, SNU449 hepatoma cells [Satoh et al. (2000) Nat Genet 24(3):245-50], HeLa cells and β-catenin transfected Jurkat T cells were incubated (5 hr) with conditioned medium of wt or Wnt3A secreting L cells [Shibamoto et al. (1998) Genes Cells 3: 659-670]. MG-132 or okadaic acid (OKA, 1 μM) were added to the indicated cultures. Endogenous (HeLa, L cells and SNU449) and exogenous (Jurkat) β-catenin was detected with anti-β-catenin antibody, or anti-phospho-β-catenin antibodies. The numbers under the different lanes are relative densitometry figures, referring to the signal intensity of untreated cultures.
The control of β-catenin stability is a major task of the Wnt pathway and is mediated through members of the conserved protein family dishevelled (Dvl 1,2,3) [Boutros and Mlodzik (1999) id ibid.]. […] To this end, several cell lines were first stimulated with Wnt3A [Roelink, H. and R. Nusse. (1991) Genes Dev 5: 381-388; Shibamoto, S. et al. (1998) id ibid.; Lee et al. (1999) id ibid.], and S45 phosphorylation was monitored by Western blot analysis. Wnt stimulation stabilized endogenous β-catenin in mouse L-cells (fibroblasts) (FIG. 6a, lanes 1,2) and exogenous β-catenin in Jurkat lymphocytes (lanes 5,6). […] (lanes 9-11). S45 phosphorylation of β-catenin was evident in proteasome-inhibited L cells (lane 3), Jurkat cells (lane 7) and HeLa cells (lane 14). It was also apparent in okadaic acid-treated SNU449 cells (OKA, lane 10).

## O=S(=O)(NCCNC/C=C/c1ccc(Br)cc1)c1cccc2cnccc12 [H89]
Endogenous β-catenin
  wt β-catenin phosphorylation: no effect
β-catenin [1]
  constitutive S45 phosphorylation of 45PKA β-catenin: inhibited

## CC(C)C[C@@H](C=O)NC(=O)[C@H](CC(C)C)NC(=O)[C@H](CC(C)C)NC(=O)OCc1ccccc1 [MG-132] (Cbz-Leu-Leu-Leu-aldehyde)
β-catenin [2]
  β-catenin degradation: blocked

## C=C1[C@@H](O)[C@@H]2O[C@]3(CC[C@H](/C=C/[C@@H](C)[C@@H]4CC(C)=C[C@@]5(O[C@H](C[C@@](C)(O)C(=O)O)CC[C@H]5O)O4)O3)CC[C@H]2O[C@@H]1[C@@H](O)C[C@H](C)[C@H]1O[C@@]2(CCCCO2)CC[C@H]1C [okadaic acid]
Phosphatase PP1
  inhibition of phosphatase PP1 relative to PP2A: 10-50 fold less
β-catenin [3]; APC mutated cell line SW480
  β-Catenin phosphorylation and degradation: induces
β-catenin [3]; MG132-treated HeLa and SW480 cells or SNU 449 cells, okadaic acid 1 μM for 1 or 3 hr
  phosphorylation signal with anti-pSer45: induces a massive phosphorylation signal
β-catenin [3]; SNU449 cells, okadaic acid 1 μM
  S45 phosphorylation of β-catenin: apparent
β-catenin [3]; okadaic acid 1 μM for 1 or 3 hr, for HeLa and RKO cells only (so in the source)
  phosphorylation signal with anti-pSer33: induces a massive phosphorylation signal

## Wnt3A
β-catenin [4]; Jurkat, HeLa and L cells
  S33/37 phosphorylation: inhibition
β-catenin [4]; SNU449 hepatoma cell line, conditioned medium 5 hr
  levels of S37 mutated β-catenin: did not affect
β-catenin [4]; all four cell lines (L, Jurkat, SNU449, HeLa), MG-132 or okadaic acid treated
  S45 phosphorylation: inhibition
β-catenin [4]; endogenous β-catenin in mouse L-cells, exogenous β-catenin in Jurkat lymphocytes, conditioned medium 5 hr
  β-catenin level (stabilization): stabilized

— patent publication US20050171005A1, “Methods and compositions for modulating beta-catenin phosphorylation” (priority 2002, published 2005)
